This note sets out measurements from patent publication US12226386B2, “Compositions and methods for treating biofilms” (The Regents of the University of California, priority 2018, dated 2025).

Like-named read-outs stand apart in the source and are kept apart here.

Assay [1] concerns S. aureus (MRSA) biofilms. Nature of the assay: in vitro biofilm disruption assay, bacterial. It counts as cell-based. The settings on record: Staphylococcus aureus, 24 h. As for the experimental part: (§1) In vitro biofilm formation was tested using two assays, sustained inhibition and disruption. Both assays assess biofilm formed on polystyrene plates. The first, tests the effects of amino acid solution on a developing biofilm, while the latter tests the effects of the solution on a pre-formed mature biofilm, both compared to media without supplemented amino acids.
(§2) Other amino acids in the blood of animals could combat bacterial and fungal biofilm and therefore may be useful in treating these bacterial and fungal infections that would lie on the external surfaces of infected animals such as humans and could also be used to combat these pathogens on instruments and surfaces that need to be treated. Two types of biofilm assays were performed: a sustained inhibition assay and a disruption assay. The sustained inhibition assay assessed the compound's ability to prevent biofilm development throughout all stages of biofilm formation, while the disruption assay assessed the compound's ability to break up an existing mature biofilm.
(§3) For fungal biofilm assays, all solutions were prepared in RPMI 1640 medium. All bacterial biofilm solutions were prepared in Tryptic Soy Broth (TSB), supplemented with 1% glucose (henceforth referred to as TSB-G). All subsequent procedures were performed in a manner that maintained sterility. A solution of each amino acid to be tested was prepared in weight to volume concentrations ranging from 0.1-5.0%. Amino acids were also tested in combinations. Compound solutions were homogenized with gentle agitation in the dark (4° C., 24 hours) before use.
(§4) Bacterial strains were streaked on Blood Agar plates (5% sheep blood in Tryptic Soy Agar) and incubated at 37° C. for 24 hours. A single colony from each strain to be tested was inoculated in a TSB broth and grown for 12 hours, at 37° C. shaking at 225 rpm. For the bacterial biofilm inhibition assays, 1 μL of saturated overnight cell culture was added to either 80 μL of TSB-G, or TSB-G supplemented with the amino acid compound solution to be tested, in a 384-well plate. The cells were allowed to adhere to the plate for 60 minutes at 37° C. without shaking. The media was carefully aspirated and 80 μL of TSB-G, or TSB-G supplemented with the amino acid compound solution was added to the plate. The plate was further incubated for 24 hours at 37° C. without shaking. Media was carefully aspirated and the biofilm was measured by optical density at 600 nm. Eight or twelve replicates were performed for each tested condition and the reported values are normalized to the control (TSB-G media only). For the bacterial biofilm disruption assays, 80 μL of TSB-G was added to the plate, along with 1 μL of overnight cell culture. The cells were allowed to adhere to the plate for 60 minutes at 37° C. with no shaking. The media was carefully aspirated and 80 μL of TSB-G was added to the plate. The plate was further incubated for 24 hours at 37° C. with no shaking. Media was carefully aspirated from the mature biofilm and 80 μL of TSB-G, or TSB-G supplemented with the amino acid to be tested, was gently added to the plate. The plate was further incubated for 24 hours at 37° C. without shaking. Media was aspirated and the biofilm was measured by optical density at 600 nm. Twelve replicates were performed for each tested condition and the reported values are normalized to the control (TSB-G media only).
For disruption assay, 80 μl of TSB-G was added to the plate, along with 1 μl of overnight cell culture. The cells were allowed to adhere to the plate for 60 minutes at 37° C. with no shaking. The media was carefully aspirated and 80 μl of TSB-G was added to the plate. The plate was further incubated for 24 hours at 37° C. with no shaking. Media was carefully aspirated from the mature biofilm and 80 μl of TSB-G, or TSB-G supplemented with the amino acid to be tested, was added drop wise to the plate. The plate was further incubated for 24 hours at 37° C. with no shaking. […]

The subject of assay [2] is S. aureus (MRSA) biofilms. Nature of the assay: in vitro sustained inhibition biofilm assay, bacterial. It counts as cell-based, Staphylococcus aureus. The conditions noted are these: for activation at 1 %: Staphylococcus aureus, MRSA, 24 h, read-out: Promote B Biofilm. How it is done:
as §1, §2, §3, §4
For inhibition assay, 1 μl of overnight cell culture was added to either 80 μl of TSB-G, or TSB-G supplemented with the amino acid to be tested, in a 384-well plate. The cells were allowed to adhere to the plate for 60 minutes at 37° C. with no shaking. The media was carefully aspirated and 80 μl of TSB-G, or TSB-G supplemented with amino acid was added to the plate. The plate was further incubated for 24 hours at 37° C. with no shaking. Media was carefully aspirated and the biofilm was measured by optical density at 600 nm. […]

The subject of assay [3] is bacterial biofilms (MRSA). The assay is described as follows: biofilm assays (sustained inhibition and/or disruption), bacterial. It counts as cell-based, Staphylococcus aureus. The settings on record: for effect on bacterial biofilm growth / anti-biofilm properties against bacterial biofilms: in at least one of the two biofilm assays; for anti-biofilm properties against bacterial biofilms: administered individually at about 0.1 to about 5.0% weight to volume; for effect on MRSA biofilms in inhibition and disruption assays: Tables 4 and 5. As for the experimental part: as §2, §3, §4

[4] abbreviates: sustained inhibition, S. aureus, 1% amino acid, p<0.001.
The mark [5] stands for this setting: disruption, S. aureus, 1% amino acid, p<0.001, read-out: Promote B Biofilm.
Setting [6] is: disruption, S. aureus, 1% amino acid, p<0.001, read-out: Reduce B Biofilm.

Turning to `NC(=O)NCCC[C@H](N)C(=O)O` [Citrulline, L-citrulline], the activation at 1 % in assay [1] (read-out: Promote B Biofilm) and in assay [2] was 10 to 30% in each case. Further, the “effect on bacterial biofilm growth” value in assay [3] was “support (improve) bacterial biofilm growth”.
Consider `NCCC(=O)O` [Beta-Alanine, Beta-alanine], for which the “Reduce B Biofilm” value in assay [2] (setting [4]) was “● (a single dot [i.e. ●] signifies minor effect (from about 10 to about 30% change))”. In addition, the “anti-biofilm properties against bacterial biofilms” value (shortened to “anti-biofilm properties”) in assay [3] is “reduction by less than twofold”.
As to `NCCCC[C@H](N)C(=O)O` [Lysine, L-lysine], the activation at 1 % in assay [1] (read-out: Promote B Biofilm) and in assay [2] was 10 to 30% each time. For the same compound, in assay [3], the “effect on bacterial biofilm growth” value is “support (improve) bacterial biofilm growth”.
On to `CSCC[C@H](N)C(=O)O` [Methionine, L-methionine], for which the activation at 1 % in assay [2] (setting [4]) fell in the range of 10 to 30%. Also, the “effect on bacterial biofilm growth” value in assay [3] is reported as “support (improve) bacterial biofilm growth”.
Take `N[C@@H](Cc1ccccc1)C(=O)O` [Phenylalanine, L-phenylalanine]: the activation at 1 % in assay [1] (setting [5]) and in assay [2] (setting [4]) was 10 to 30% throughout. In assay [3], the “effect on bacterial biofilm growth” value was “support (improve) bacterial biofilm growth”.
Consider `CC[C@H](C)[C@H](N)C(=O)O` [Isoleucine, L-isoleucine], for which the activation at 1 % in assay [1] (setting [5]) lay within 10 to 30%. In assay [3], the “effect on bacterial biofilm growth” value was “support (improve) bacterial biofilm growth”.
`NC(CCCC(=O)O)C(=O)O` (stereo not shown) [2 Aminoadipic Acid, 2-aminoadipic acid]: the inhibition at 1 % in assay [1] (setting [6]) was in the range of 10 to 30%. For the same compound, the “Reduce B Biofilm” value in assay [2] (setting [4]) is “● (a single dot [i.e. ●] signifies minor effect (from about 10 to about 30% change))”. Moreover, in assay [3], the “effect on MRSA biofilms in inhibition and disruption assays” value was “both inhibited and disrupted”; the “anti-biofilm properties” value is “reduction by less than twofold”.
On to `N=C(N)NCCC[C@H](N)C(=O)O` [Arginine, L-arginine], for which the activation at 1 % in assay [1] (read-out: Promote B Biofilm) and in assay [2] was 10 to 30% each time. Also, the “effect on bacterial biofilm growth” value in assay [3] is given as “support (improve) bacterial biofilm growth”.
`N[C@@H](CCSC[C@H](N)C(=O)O)C(=O)O` [Cystathionine, L-cystathionine]: in assay [1] (disruption, S. aureus, 0.2% amino acid, p<0.001, read-out: Reduce B Biofilm), the inhibition at 0.2 % lay in the range of 10 to 30%.
As to `N[C@@H](CO)C(=O)O` [Serine, L-serine], the activation at 1 % in assay [1] (setting [5]) and in assay [2] (setting [4]) was 10 to 30% in each case. For the same compound, the “effect on bacterial biofilm growth” value in assay [3] is recorded as “support (improve) bacterial biofilm growth”.
For the compound `C[C@H](N)C(=O)O` [Alanine, L-alanine], in assay [1] (setting [5]), the activation at 1 % was 10 to 30%. In addition, the “effect on bacterial biofilm growth” value in assay [3] is “support (improve) bacterial biofilm growth”.
As for `NCCC[C@H](N)C(=O)O` [Ornithine, L-omithine], the activation at 1 % in assay [1] (setting [5]) and in assay [2] (setting [4]) was 10 to 30% throughout. Further, in assay [3], the “effect on bacterial biofilm growth” value is reported as “support (improve) bacterial biofilm growth”.
Regarding `NCC(=O)O` [Glycine, L-glycine], the activation at 1 % in assay [1] (setting [5]) and in assay [2] (setting [4]) was 10 to 30% each time. Besides, the “effect on bacterial biofilm growth” value in assay [3] is “support (improve) bacterial biofilm growth”.
Take `NC(=O)C[C@H](N)C(=O)O` [Asparagine, L-asparagine]: in assay [2] (setting [4]), the activation at 1 % lay in the range of 10 to 30%. For the same compound, in assay [3], the “effect on bacterial biofilm growth” value was “support (improve) bacterial biofilm growth”.
On to `CC(C)C[C@H](N)C(=O)O` [Leucine, L-leucine], for which the activation at 1 % in assay [1] (setting [5]) and in assay [2] (setting [4]) was 10 to 30% in each case. In assay [3], the “effect on bacterial biofilm growth” value is “support (improve) bacterial biofilm growth”.
Regarding `NCCOP(=O)(O)O` [Phosphoethanolamine, O-phosphoethanolamine], the inhibition at 1 % in assay [1] (setting [6]) was in the range of 10 to 30%. Further, in assay [2] (setting [4]), the “Reduce B Biofilm” value was “● (a single dot [i.e. ●] signifies minor effect (from about 10 to about 30% change))”. Besides, in assay [3], the “effect on MRSA biofilms in inhibition and disruption assays” value is “both inhibited and disrupted”; the “anti-biofilm properties” value is listed as “reduction by less than twofold”.
As to `C[C@@H](O)[C@H](N)C(=O)O` [Threonine, L-threonine], the activation at 1 % in assay [2] (setting [4]) lay within 10 to 30%. Also, the “effect on bacterial biofilm growth” value in assay [3] is recorded as “support (improve) bacterial biofilm growth”.
Consider `NCCS(=O)(=O)O` [Taurine, L-taurine], for which the activation at 1 % in assay [1] (setting [5]) and in assay [2] (setting [4]) was 10 to 30% each time. For the same compound, the “effect on bacterial biofilm growth” value in assay [3] was “support (improve) bacterial biofilm growth”.
As to `O=C(O)[C@@H]1C[C@@H](O)CN1` [Hydroxyproline, Trans-4-hydroxy-L-proline], in assay [1] (read-out: Reduce B Biofilm), the inhibition at 1 % lay within 10 to 30%. Further, the “Reduce B Biofilm” value in assay [2] (setting [4]) was “● (a single dot [i.e. ●] signifies minor effect (from about 10 to about 30% change))”. For the same compound, in assay [3], the “effect on MRSA biofilms in inhibition and disruption assays” value is “both inhibited and disrupted”; the “anti-biofilm properties” value is on record as “reduction by less than twofold”.
